Data on 1 compound can be found in article PMC13099078 (2023).

The test system of assay [1] is vancomycin-binding aptamer (45-base; EAB sensor) (DNA, aptamer) CGAGGGTACCGCAATAGTACTTATTGTTCGCCTATTGTGGGTCGG
Description: alternating current voltammetry. Conditions: 2 mM Mg2+, PBS; 1x PBS, 37°C; apparent; Langmuir fit; 50 and 5 Hz.

Assay [2] has the same test system. Description: differential pulse voltammetry. The note with it: 2 mM Mg2+, PBS; 1x PBS, 37°C; apparent; Langmuir fit.

For `CN[C@H](CC(C)C)C(=O)N[C@H]1C(=O)N[C@@H](CC(N)=O)C(=O)N[C@H]2C(=O)N[C@H]3C(=O)N[C@H](C(=O)N[C@H](C(=O)O)c4cc(O)cc(O)c4-c4cc3ccc4O)[C@H](O)c3ccc(c(Cl)c3)Oc3cc2cc(c3O[C@@H]2O[C@H](CO)[C@@H](O)[C@H](O)[C@H]2O[C@H]2C[C@](C)(N)[C@H](O)[C@H](C)O2)Oc2ccc(cc2Cl)[C@H]1O`, the Kd was found to be 46 ± 4 µM in assay [1] and 76 ± 6 µM in assay [2].
